Ki and EC50 data for 2 compounds are collected here from paper PMC1382195 (The Journal of General Physiology, 2005).

Assay [1] deals with T1, cystic fibrosis transmembrane conductance regulator (ΔR-CFTR) (Homo sapiens, UniProt P13569, DEL634-836). The assay is described as follows: excised inside-out patch-clamp. It is filed as biochemical. For orientation: Patch clamp records ionic current or voltage across a cell membrane.
Assay [2] concerns the target T1, cystic fibrosis transmembrane conductance regulator (ΔR-CFTR). Nature of the assay: excised inside-out patch-clamp, single-channel Po versus [ATP]. It is filed as biochemical.

The structures appear in SMILES notation.

T1 sequence (P13569 1-633, stated change not applied): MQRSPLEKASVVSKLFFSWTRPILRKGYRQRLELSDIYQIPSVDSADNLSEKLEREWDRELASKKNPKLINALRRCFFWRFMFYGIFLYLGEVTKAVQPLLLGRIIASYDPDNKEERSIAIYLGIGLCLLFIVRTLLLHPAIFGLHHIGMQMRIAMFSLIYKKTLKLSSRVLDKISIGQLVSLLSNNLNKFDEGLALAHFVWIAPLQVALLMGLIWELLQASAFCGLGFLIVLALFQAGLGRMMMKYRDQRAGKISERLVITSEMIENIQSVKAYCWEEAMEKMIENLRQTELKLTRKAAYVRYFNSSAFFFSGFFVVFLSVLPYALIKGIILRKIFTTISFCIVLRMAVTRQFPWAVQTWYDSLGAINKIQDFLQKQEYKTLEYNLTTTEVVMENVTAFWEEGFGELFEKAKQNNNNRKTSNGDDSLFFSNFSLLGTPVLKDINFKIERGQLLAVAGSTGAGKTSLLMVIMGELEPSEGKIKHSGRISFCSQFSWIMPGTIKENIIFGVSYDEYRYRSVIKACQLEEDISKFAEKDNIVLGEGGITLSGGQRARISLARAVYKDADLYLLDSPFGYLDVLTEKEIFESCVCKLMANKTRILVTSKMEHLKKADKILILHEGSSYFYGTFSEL
T1 sequence (P13569 837-1480, stated change not applied): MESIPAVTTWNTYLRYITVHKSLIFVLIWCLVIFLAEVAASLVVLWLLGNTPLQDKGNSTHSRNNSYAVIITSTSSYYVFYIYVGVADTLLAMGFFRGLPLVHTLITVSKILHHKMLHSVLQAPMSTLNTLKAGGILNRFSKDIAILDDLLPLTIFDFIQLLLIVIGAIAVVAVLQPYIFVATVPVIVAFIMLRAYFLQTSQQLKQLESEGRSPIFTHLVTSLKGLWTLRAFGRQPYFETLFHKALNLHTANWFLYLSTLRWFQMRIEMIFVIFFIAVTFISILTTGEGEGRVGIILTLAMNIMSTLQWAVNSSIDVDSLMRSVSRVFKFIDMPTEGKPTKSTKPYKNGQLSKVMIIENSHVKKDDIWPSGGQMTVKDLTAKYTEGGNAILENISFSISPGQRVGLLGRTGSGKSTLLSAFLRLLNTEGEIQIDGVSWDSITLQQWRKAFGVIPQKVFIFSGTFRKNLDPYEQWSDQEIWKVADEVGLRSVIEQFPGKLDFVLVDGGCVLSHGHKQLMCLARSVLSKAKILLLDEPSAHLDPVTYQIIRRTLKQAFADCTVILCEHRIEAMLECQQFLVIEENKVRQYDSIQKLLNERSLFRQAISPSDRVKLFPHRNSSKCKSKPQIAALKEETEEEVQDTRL

Usually Ki stands for a measure of affinity in units of concentration, obtained from inhibition or displacement. A low value points to a stronger hold on the target. Regarding `Nc1ncnc2c1ncn2[C@@H]1O[C@H](COP(=O)(O)OP(=O)(O)O)[C@@H](O)[C@H]1O` [ADP], the affinity in assay [1], expressed as Ki, was 26.3 ± 5.1 µM.
Broadly, the EC50 is the midpoint of the concentration-response curve. Low readings indicate greater potency, high ones weaker potency. In the case of `Nc1ncnc2c1ncn2[C@@H]1O[C@H](COP(=O)(O)OP(=O)(O)OP(=O)(O)O)[C@@H](O)[C@H]1O` [ATP], it took 89 ± 25 µM to reach a half-maximal effect in assay [2] (EC50).
